Legend:
PLpro of SARS-CoV-2 [1] = target: T1, PLpro of SARS-CoV-2 (Severe acute respiratory syndrome coronavirus 2, UniProt P0DTD1); experiment: Enzyme activity test in vitro: inhibition of PLpro at fixed concentration 50 μM (RLRGG-AMC substrate); format: biochemical; details: compound 50 μM, 10 min preincubation at 37° C., Table 1; read-out: Inhibition rate at 50 μM (%)
PLpro of SARS-CoV-2 [2] = target: T1, PLpro of SARS-CoV-2; experiment: IC50 determination of inhibition of PLpro activity (RLRGG-AMC substrate); format: biochemical; details: 13 concentrations 100 μM to 0.0244 μM, GraphPad Prism

SMILES	inhibition at 50 µM (PLpro of SARS-CoV-2 [1]) [%]	IC50 (PLpro of SARS-CoV-2 [2]) [µM]
COc1ccc(-c2nc3cnccn3c2Nc2ccc(C(=O)NCc3ccco3)cc2)cc1 [P22445, N-(furan-2-ylmethyl)-4-[[2-(4-methoxy-phenyl)imidazo[1,2-a]pyrazin-3-yl]amino]benzamide]	62.3	13.9
O=C(NC1CCCCC1)c1cccc(Nc2c(-c3ccc(Cl)cc3)nc3cnccn23)c1 [P22438, 3-[[2-(4-chlorophenyl)imidazo[1,2-a]pyrazin-3-yl]amino]-N-cyclohexyl-benzamide]	54.2	40.8
O=C(O)c1ccc(Nc2c(-c3ccc(Cl)cc3)nc3cnccn23)cc1 [P18224, 4-[[2-(4-chlorophenyl)imidazo[1,2-a]pyrazin-3-yl]amino] benzoic acid]	54.6	38.3
COc1ccc(-c2nc3cnccn3c2Nc2cccc(C(N)=O)c2)cc1 [P22475, 3-[[2-(4-methoxy-phenyl)imidazo[1,2-a]pyrazin-3-yl]amino] benzamide]	60.1	16.6
COC(=O)c1cccc(Nc2c(-c3ccc(N4CCOCC4)cc3)nc3cnccn23)c1 [P141, methyl 3-[[2-(4-morpholin-4-ylphenyl)imidazo [1,2-a]pyrazin-3-yl]amino]benzoate]	63.8	38.1
CSc1ccc(-c2nc3cnccn3c2Nc2ccc(C(=O)O)cc2)cc1 [P19445, 4-[[2-(4-methyl-sulfanylphenyl)imidazo [1,2-a]pyrazin-3-yl]amino]benzoic acid]	50.2	47.6
CCNC(=O)c1ccc(Nc2c(-c3ccc(OC)cc3)nc3cnccn23)cc1 [P22471, Nethyl-4-[[2-(4-methoxyphenyl)imidazo[1,2-a]pyrazin-3-yl]amino]benzamide]	52.8	35.1
